2 compounds from patent publication US20250269044A1, “PSMA-TARGETED DENDRIMER NANOPLATFORM FOR CANCER DETECTION AND THERAPY” (Washington State University, priority 2024, published 2025) can be followed below.

In brackets after ≈: the same amount, converted by molar mass. Entries after “also recorded” stand apart in the source; their conditions may differ.

For data set [1], the target named is c-Met (Homo sapiens, UniProt P08581). As to the kind of experiment: c-Met inhibition activities (IC50). Particulars: read-out: c-Met inhibitory activity IC50. The format is biochemical.
Data set [2] is described as follows: Aqueous solubility. The format is physicochemical.
For data set [3], the system named is PC3-PIP PSMA (+) cells. As to the kind of experiment: CellTiter-Glo Luminescent Cell Viability assay. The format is cell-based. As to conditions: Homo sapiens; for viability at 1 µg/mL: 1 μg/ml; for viability at 1 µg/mL / viability at 10 µg/mL / viability at 1000 µg/mL / EC50: 72 h; for viability at 1 µg/mL / viability at 10 µg/mL / viability at 1000 µg/mL: read-out: viable cells; for viability at 10 µg/mL: 10 μg/ml; for viability at 1000 µg/mL: 1000 μg/ml; for IC50: 72 H, equivalent drug bases, read-out: IC50 anti-proliferative activity; for EC50: nonlinear regression with variable slope. Here is the method: Cell viability: 2.5×10^4 PC3-PIP PSMA (+) cells were allowed to adhere to a 96 well plate overnight. The following day, cell media was changed and the PD-CTT1298-Cabo conjugate, at the concentrations tested, was added along with cabozantinib (Cabo) and hydoxy-cabozantinib (Cabo-OH). The cells were allowed to incubate at 37°° C. for 72H. Following incubation, the luminescence of the viable cells was measured using the CellTiter-Glo® Luminescent Cell Viability assay according to manufacturer's instructions. Cell viability (%) was calculated using the luminescence values obtained from the controls used in the experiment. The experiment was performed in triplicate.
Cell viability. 2.5×10^4 PC3-PIP PSMA (+) cells were allowed to adhere to a 96 well plate overnight. The following day, cell media was changed and the PSMA-2DG-D-Cabo dendrimer, at the concentrations tested, were added along with Cabozantinib (Cabo) and Cabozantinib-7-hydoxy derivative (Cabo-OH). The cells were allowed to incubate at 37° C. for 72 h. Following incubation, the luminescence of the viable cells was measured using the CellTiter-Glo® Luminescent Cell Viability assay (Promega, G7570) according to manufacturer's instructions. The luminescence data was collected using a plate reader. Cell viability (%) was calculated using the luminescence values obtained from the controls used in the experiment. The blank cells served as a positive (+) control while sterile 10% DMSO (Fisher Scientific, BP231) served as the negative (−) control. The experiment was performed in triplicate. A similar experiment was carried out with 2DG-D dendrimer at different concentrations (0.1, 1, 10, 100 and 1000 μg/ml) following the same protocol. The experiments were performed in triplicate, with proper controls. Statistical analyses were performed using a TWO-WAY ANOVA T-Test with unequal variances.
On the technique in general: Cellular ATP, detected with luciferase, serves as a proxy for viable cell number.

Sequence of c-Met (P08581 25-1390): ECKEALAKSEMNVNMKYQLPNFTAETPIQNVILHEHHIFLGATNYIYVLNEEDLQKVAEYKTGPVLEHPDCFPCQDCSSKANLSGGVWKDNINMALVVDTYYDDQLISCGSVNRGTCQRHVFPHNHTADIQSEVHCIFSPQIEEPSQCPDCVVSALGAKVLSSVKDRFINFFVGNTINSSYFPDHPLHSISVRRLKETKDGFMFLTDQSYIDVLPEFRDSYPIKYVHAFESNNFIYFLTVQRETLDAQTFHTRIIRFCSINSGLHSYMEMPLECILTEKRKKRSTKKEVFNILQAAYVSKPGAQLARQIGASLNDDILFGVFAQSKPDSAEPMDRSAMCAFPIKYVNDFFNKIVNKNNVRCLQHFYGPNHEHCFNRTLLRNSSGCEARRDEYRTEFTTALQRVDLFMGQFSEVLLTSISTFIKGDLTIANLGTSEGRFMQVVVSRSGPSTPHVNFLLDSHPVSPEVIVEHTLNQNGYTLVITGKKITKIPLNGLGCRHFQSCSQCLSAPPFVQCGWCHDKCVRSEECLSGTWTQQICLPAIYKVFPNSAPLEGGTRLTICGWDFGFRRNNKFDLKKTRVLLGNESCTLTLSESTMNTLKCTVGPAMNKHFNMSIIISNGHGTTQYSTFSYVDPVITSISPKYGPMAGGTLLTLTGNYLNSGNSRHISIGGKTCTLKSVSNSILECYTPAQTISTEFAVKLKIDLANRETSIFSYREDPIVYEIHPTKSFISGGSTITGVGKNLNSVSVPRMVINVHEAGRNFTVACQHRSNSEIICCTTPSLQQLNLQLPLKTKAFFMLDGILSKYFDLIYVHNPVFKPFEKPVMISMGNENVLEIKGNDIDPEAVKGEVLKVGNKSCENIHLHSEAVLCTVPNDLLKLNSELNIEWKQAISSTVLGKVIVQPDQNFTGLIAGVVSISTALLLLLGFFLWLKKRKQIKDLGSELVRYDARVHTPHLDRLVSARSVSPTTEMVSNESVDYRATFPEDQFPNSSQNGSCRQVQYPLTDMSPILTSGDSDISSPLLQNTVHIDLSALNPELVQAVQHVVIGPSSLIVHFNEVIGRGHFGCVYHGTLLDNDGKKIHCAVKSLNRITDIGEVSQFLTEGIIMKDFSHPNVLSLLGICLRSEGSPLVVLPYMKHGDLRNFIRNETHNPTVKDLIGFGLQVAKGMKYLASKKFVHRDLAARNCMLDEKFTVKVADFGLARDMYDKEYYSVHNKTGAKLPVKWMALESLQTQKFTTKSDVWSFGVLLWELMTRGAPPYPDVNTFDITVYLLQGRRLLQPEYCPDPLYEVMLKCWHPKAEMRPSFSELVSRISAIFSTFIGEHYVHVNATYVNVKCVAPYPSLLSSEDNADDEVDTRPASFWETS

Consider `COc1cc2c(Oc3ccc(NC(=O)C4(C(=O)Nc5ccc(F)cc5)CC4)cc3)ccnc2cc1O` [Cabo-OH, hydoxy-cabozantinib], for which, in data set [1], the IC50 (commonly the point on the concentration scale where inhibition reaches its midpoint) was 26.3 nM. Besides, the “water solubility (in words)” value in data set [2] is reported as “poor aqueous solubility; also recorded: negligible solubility in water”. In addition, in data set [3], the viability at 1 µg/mL came to 105 ± 6.38%, the viability at 10 µg/mL worked out at 106 ± 3.09%, the viability at 1000 µg/mL worked out at 7.81 ± 0.24% and the concentration for half-maximal inhibition (IC50) worked out at 77.3 ± 4.35 µg/mL. Moreover, in data set [3], the EC50 (commonly the concentration at which the effect is half-maximal) amounted to 69.4 µg/mL (≈ 142 µM).
In the case of `COc1cc2nccc(Oc3ccc(NC(=O)C4(C(=O)Nc5ccc(F)cc5)CC4)cc3)c2cc1OC` [Cabo, cabozantinib], in data set [2], the “water solubility (in words)” value is recorded as “poor aqueous solubility; also recorded: negligible solubility in water”. Also, in data set [3], the viability at 1 µg/mL amounted to 96.3 ± 4.58%, the viability at 10 µg/mL worked out at 69.2 ± 0.94%, the viability at 1000 µg/mL was determined as 4.17 ± 0.53% and the IC50 stood at 24.8 ± 2.27 µg/mL. A half-maximal response in data set [3] (EC50) required 68 µg/mL (≈ 136 µM).
